Key:
[1] = system: rat; conditions: Chronic toxicity, sprague dawley, Oral, Feed, dose end: 24 month, group: systemic
[2] = system: mouse; conditions: Chronic toxicity, other, Oral, Feed, dose end: 150 week, group: systemic
[3] = system: mouse; conditions: Carcinogenicity; b6c3f1; Oral; Feed; dose end: 78 week; group: systemic; systemic / in life observation / body weight / body weight + systemic / pathology microscopic / liver / carcinoma
[4] = system: rat; conditions: Carcinogenicity; other; Oral; Feed; dose end: 78 week; group: systemic; systemic / pathology microscopic / thyroid gland / adenoma + systemic / in life observation / clinical signs / abdominogenital staining + …
[5] = system: rat; conditions: Multigenerational reproductive toxicity study, sprague dawley, Oral, Water, dose end: 3 generation
[6] = system: rat; conditions: Multigenerational reproductive toxicity study, Sprague Dawley, Oral, Gavage/Intubation, dose end: 2 generation
[7] = system: rat; conditions: Multigenerational reproductive toxicity study, Oral, Gavage/Intubation, dose end: 2 generation
[8] = system: rat; conditions: Prenatal developmental toxicity study; sprague dawley; Oral; Gavage/Intubation; dose end: 15 GD; group: developmental; systemic / in life observation / body weight / fetal weight
[9] = system: rat; conditions: Carcinogenicity, fischer, Oral, Feed, dose end: 104 week, group: systemic
[10] = system: mouse; conditions: Combined chronic toxicity/carcinogenicity, other, Oral, Feed, dose end: 24 month, group: systemic
[11] = systemic / in life observation / body weight / body weight
[12] = systemic / in life observation / body weight / body weight + systemic / organ weight / liver / absolute + systemic / organ weight / liver / …
[13] = group: offspring, systemic / pathology microscopic / liver / nuclear alteration
[14] = group: parental, systemic / pathology microscopic / liver / apoptosis
[15] = group: offspring, developmental / developmental landmark / vaginal opening / vaginal opening + systemic / clinical chemistry / luteinizing hormone (lh) / …
[16] = group: offspring, systemic / in life observation / clinical signs / swimming time trial
[17] = group: parental, systemic / in life observation / clinical signs / salivation + systemic / organ weight / ovary / absolute + systemic / organ weight / ovary…
[18] = group: reproductive, reproductive / offspring survival early / birth index / live birth index + reproductive / reproductive performance / implantations / …
[19] = group: offspring, developmental / developmental malformation / bone / wavy
[20] = group: reproductive, reproductive / reproductive performance / gestational length / gestational length + reproductive / offspring survival early / dead fetuses…
[21] = systemic / pathology microscopic / parathyroid gland / hyperplasia
[22] = systemic / clinical chemistry / alanine aminotransferase (alt/sgpt) / alanine aminotransferase (alt/sgpt) + systemic / clinical chemistry / …

Compound: CCOC(=O)NC(=S)Nc1ccccc1NC(=S)NC(=O)OCC [Thiophanate]
- NEL [1, 11]: 10 mg/kg/day
- NOAEL [1, 11]: 10 mg/kg/day
- LEL [1, 12]: 50 mg/kg/day
- LOAEL [1, 12]: 50 mg/kg/day
- NEL ([2]; systemic / pathology microscopic / ovary / cyst): 60 mg/kg/day
- LOAEL ([2]; systemic / pathology microscopic / testes / hypospermatogenesis): 300 mg/kg/day
- NOAEL ([2]; systemic / pathology microscopic / testes / hypospermatogenesis + systemic / pathology microscopic / liver / fatty change): 60 mg/kg/day
- LEL ([2]; systemic / pathology microscopic / testes / hypospermatogenesis + systemic / pathology microscopic / liver / fatty change + systemic / …): 300 mg/kg/day

Compound: Clc1ccc(C(c2ccc(Cl)cc2)C(Cl)Cl)cc1 [p,p'-DDD]
- LEL [3]: 61.6 mg/kg/day
- LOAEL [3]: > 123 mg/kg/day
- NEL [3]: < 61.6 mg/kg/day
- NOAEL [3]: ≥ 123 mg/kg/day
- LEL [4]: 42.5 mg/kg/day
- LOAEL [4]: > 85 mg/kg/day
- NEL [4]: < 42.5 mg/kg/day
- NOAEL [4]: ≥ 85 mg/kg/day

Compound: CCCCCCCCCc1ccccc1O [Nonylphenol (mixed)]
- LEL [5, 13]: 1.25 mg/kg/day
- LOAEL [5, 13]: > 1.25 mg/kg/day
- NEL [5, 13]: < 1.25 mg/kg/day
- NOAEL [5, 13]: ≥ 1.25 mg/kg/day
- LEL [5, 14]: 1.25 mg/kg/day
- LOAEL [5, 14]: > 1.25 mg/kg/day
- NEL [5, 14]: < 1.25 mg/kg/day
- NOAEL [5, 14]: ≥ 1.25 mg/kg/day
- LOAEL [6, 15]: > 50 mg/kg/day
- NOAEL [6, 15]: ≥ 50 mg/kg/day
- LEL [6, 16]: 2 mg/kg/day
- NEL [6, 16]: < 2 mg/kg/day
- LEL [6, 17]: 50 mg/kg/day
- LOAEL [6, 17]: > 50 mg/kg/day
- NEL [6, 17]: 10 mg/kg/day
- NOAEL [6, 17]: ≥ 50 mg/kg/day
- LEL [6, 18]: 50 mg/kg/day
- LOAEL [6, 18]: > 50 mg/kg/day
- NEL [6, 18]: 10 mg/kg/day
- NOAEL [6, 18]: ≥ 50 mg/kg/day

Compound: COc1ccc(C(=O)c2c(C)n(CCN3CCOCC3)c3ccccc23)cc1 [Pravadoline]
- LEL [7, 19]: 300 mg/kg/day
- LOAEL [7, 19]: > 300 mg/kg/day
- NEL [7, 19]: 100 mg/kg/day
- NOAEL [7, 19]: ≥ 300 mg/kg/day
- NEL ([7]; group: reproductive, reproductive / reproductive performance / gestational length / gestational length): 100 mg/kg/day
- LEL [7, 20]: 300 mg/kg/day
- LOAEL [7, 20]: > 300 mg/kg/day
- NOAEL [7, 20]: ≥ 300 mg/kg/day

Compound: O=c1c(O)c(-c2ccc(O)c(O)c2)oc2cc(O)cc(O)c12 [Quercetin]
- LEL [8]: 200 mg/kg/day
- LOAEL [8]: > 2000 mg/kg/day
- NEL [8]: 20 mg/kg/day
- NOAEL [8]: ≥ 2000 mg/kg/day
- LOAEL ([9]; systemic / in life observation / body weight / body weight + systemic / in life observation / body weight / body weight gain + systemic / …): 1600 mg/kg/day
- NOAEL ([9]; systemic / in life observation / body weight / body weight + systemic / organ weight / kidney / relative to body weight + systemic / organ …): 400 mg/kg/day
- LEL [9, 21]: 40 mg/kg/day
- NEL [9, 21]: < 40 mg/kg/day

Compound: CC(CCl)OC(C)CCl (stereo unspecified) [Bis(2-chloro-1-methylethyl) ether]
- LOAEL [10, 22]: > 927 mg/kg/day
- NEL [10, 22]: 8.41 mg/kg/day
- NOAEL [10, 22]: ≥ 927 mg/kg/day
- LEL ([10]; systemic / hematology / leukocyte (wbc) count differential / leukocyte (wbc)): 40.1 mg/kg/day

Reference: EPA's ToxRefDB 2
